# Test results as given in patent US11530244B2, “Cyclic polypeptides for PCSK9 inhibition” (priority 2018, dated 2022).
# Starred links: 1 amine or outer side, 2 acyl side, 3 side chain; linkers in the order of their positions; H or OH if unused. Positions of bridges follow the written chain, without caps; N, C: chain ends. Non-standard residues stand in square brackets, D forms with d. Residues, ends and D or L forms follow the SMILES beside them. NMeTrp(1-Me) = CN[C@@H](Cc1cn(C)c2ccccc12)C(=O)O; Trp(5-F) = N[C@@H](Cc1c[nH]c2ccc(F)cc12)C(=O)O; mXylylene(5-F) = Fc1cc(C[*:1])cc(C[*:2])c1; Pro(cis-4-F) = O=C(O)[C@@H]1C[C@H](F)CN1; X4 = O=C(CCSCc1cccc(CSCCN[*:1])c1)[*:2]; 2Nal = N[C@@H](Cc1ccc2ccccc2c1)C(=O)O; mXylylene = c1cc(C[*:1])cc(C[*:2])c1; AEF = NCCOc1ccc(C[C@H](N)C(=O)O)cc1; NMeT = CN[C@H](C(=O)O)[C@@H](C)O; aThr = C[C@H](O)[C@H](N)C(=O)O; X59 = Fc1ccc(C[*:2])cc1C[*:1]; dNMeL = CN[C@H](CC(C)C)C(=O)O; αMeP = C[C@@]1(C(=O)O)CCCN1; Nva = CCC[C@H](N)C(=O)O; Mpa = O=C(O)CCS
# Target: PCSK9 (Homo sapiens (Human), UniProt Q8NBP7)
# Sequence (Q8NBP7 153-692): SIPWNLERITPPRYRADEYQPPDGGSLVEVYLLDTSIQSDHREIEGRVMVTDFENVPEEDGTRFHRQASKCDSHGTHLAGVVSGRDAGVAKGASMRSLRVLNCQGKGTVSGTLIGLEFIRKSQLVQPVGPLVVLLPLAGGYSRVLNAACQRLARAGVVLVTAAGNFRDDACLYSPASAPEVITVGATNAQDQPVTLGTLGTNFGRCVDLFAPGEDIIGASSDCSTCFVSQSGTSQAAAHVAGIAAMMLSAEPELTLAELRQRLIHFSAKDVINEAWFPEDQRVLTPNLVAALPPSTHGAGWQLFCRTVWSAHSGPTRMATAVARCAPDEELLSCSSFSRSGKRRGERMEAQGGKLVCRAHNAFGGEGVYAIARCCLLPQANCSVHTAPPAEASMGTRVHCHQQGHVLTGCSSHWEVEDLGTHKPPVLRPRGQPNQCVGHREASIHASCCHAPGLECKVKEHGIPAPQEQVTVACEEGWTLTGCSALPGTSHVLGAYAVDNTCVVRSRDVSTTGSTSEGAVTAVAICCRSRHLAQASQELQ
# Assay: PCSK9 Alexa FRET Standard assay (displacement of AlexaFluor647 tagged cyclic peptide Reagent A)
# Type: binding
# Conditions: PCSK9 Alexa FRET Standard assay, 0.5 nM PCSK9, 20 nM AF cyclic peptide Reagent A; read-out: IC50
# Description: A solution containing 1 nM biotinylated PCSK9+2.5 nM Lance Streptavidin Europium (Strep-Eu) was made in 50 mM HEPES pH 7.4, 0.15 M NaCl, 5 mM CaCl2), 0.01% BSA, and 0.01% Surfactant P20. A separate solution containing 40 nM of the AlexaFluor tagged cyclic peptide was made in the same buffer system. An Echo was used to transfer 0.750 ul of compound to an assay plate followed by the addition of 15 ul of PCSK9+Stept-Eu and 15 ul of AF peptide. The final assay volume was 30.750 ul containing 0.5 nM PCSK9, 1.25 nM Strep-Eu, and 20 nM AF cyclic peptide. The reaction was incubated at room temperature for at least two hours prior to fluorescence measurements using an Envision Multilabel Reader. IC50 values were determined by fitting data to a sigmoidal dose-response curve using nonlinear regression. Ki was then calculated from the IC50 and the KD of AF cyclic peptide. Counts (B-counts) of the europium-labeled PCSK9 were followed to observe if compounds were […]. A fall off of the B-counts likely indicated a false positive of inhibition. Data from this procedure was reported as “A=‘numerical value’ (nanomolar)”
row,IC50 [µM],Compound
1,21 to 50,CC[C@H](C)[C@@H]1NC(=O)[C@@H]2CCCN2C(=O)[C@H](Cc2c[nH]c3ccc(F)cc23)NC(=O)[C@H](Cc2c[nH]c3ccc(F)cc23)NC(=O)[C@@H](C)NC(=O)[C@H](CCCCN)NC(=O)CCSCc2cc(F)cc(c2)CSC[C@@H](C(N)=O)NC(=O)[C@]2(C)CCCN2C(=O)[C@H](Cc2ccc(OC)cc2)NC1=O [Compound 008] ([Mpa]K[dA][Trp(5-F)][Trp(5-F)]PIY(Me)[αMeP]C-NH2; linker 1-10 via mXylylene(5-F))
2,21 to 50,COc1ccc(C[C@@H]2NC(=O)[C@H](C(C)C)NC(=O)[C@@H]3CCCN3C(=O)[C@H](Cc3c[nH]c4ccc(F)cc34)NC(=O)[C@H](Cc3c[nH]c4ccc(F)cc34)NC(=O)[C@@H](C)NC(=O)[C@H](CCCCN)NC(=O)CCSCc3cccc(c3)CSC[C@@H](C(N)=O)NC(=O)[C@]3(C)CCCN3C2=O)cc1 [Compound 009] ([Mpa]K[dA][Trp(5-F)][Trp(5-F)]PVY(Me)[αMeP]C-NH2; linker 1-10 via mXylylene)
3,21 to 50,COc1ccc(C[C@@H]2NC(=O)[C@H]([C@@H](C)O)NC(=O)[C@@H]3CCCN3C(=O)[C@H](Cc3c[nH]c4ccc(F)cc34)NC(=O)[C@H](Cc3c[nH]c4ccc(F)cc34)NC(=O)[C@@H](C)NC(=O)[C@H](CCCCN)NC(=O)CCSCc3cc(F)cc(c3)CSC[C@@H](C(N)=O)NC(=O)[C@]3(C)CCCN3C2=O)cc1 [Compound 041] ([Mpa]K[dA][Trp(5-F)][Trp(5-F)]PTY(Me)[αMeP]C-NH2; linker 1-10 via mXylylene(5-F))
4,21 to 50,COc1ccc(C[C@@H]2NC(=O)[C@H]([C@@H](C)O)NC(=O)[C@@H]3C[C@H](F)CN3C(=O)[C@H](Cc3c[nH]c4ccc(F)cc34)NC(=O)[C@H](Cc3c[nH]c4ccc(F)cc34)NC(=O)[C@@H](C)NC(=O)[C@H](NC(C)=O)CCC(=O)NCCOc3ccc(cc3)C[C@@H](C(N)=O)NC(=O)[C@]3(C)CCCN3C2=O)cc1 [Compound 056] (Ac-[dE][dA][Trp(5-F)][Trp(5-F)][Pro(cis-4-F)]TY(Me)[αMeP][AEF]-NH2; lactam 1-9)
5,21 to 50,COc1ccc(C[C@@H]2NC(=O)[C@H]([C@@H](C)O)NC(=O)[C@@H]3CCCN3C(=O)[C@H](Cc3c[nH]c4ccc(F)cc34)NC(=O)[C@H](Cc3c[nH]c4ccc(F)cc34)NC(=O)[C@@H](C)NC(=O)[C@H](CCCCN)NC(=O)CCSCc3cc(ccc3F)CSC[C@@H](C(N)=O)NC(=O)[C@]3(C)CCCN3C2=O)cc1 [Compound 069] ([Mpa]K[dA][Trp(5-F)][Trp(5-F)]PTY(Me)[αMeP]C-NH2; linker 1-10 via X59)

# The remaining lines, values behind:
row,Compound,IC50 [µM]
1,CC[C@H](C)[C@@H]1NC(=O)[C@@H]2CCCN2C(=O)[C@H](Cc2c[nH]c3ccc(F)cc23)NC(=O)[C@H](Cc2c[nH]c3ccc(F)cc23)NC(=O)CNC(=O)[C@H](CCCCN)NC(=O)CCSCc2cccc(c2)CSC[C@@H](C(N)=O)NC(=O)[C@]2(C)CCCN2C(=O)[C@H](Cc2ccc(O)cc2)NC1=O [Compound 006] ([Mpa]KG[Trp(5-F)][Trp(5-F)]PIY[αMeP]C-NH2; linker 1-10 via mXylylene),21 to 50
2,CCC[C@@H]1NC(=O)CCSCc2cccc(c2)CSC[C@@H](C(N)=O)NC(=O)[C@@H]2CCCN2C(=O)[C@H](Cc2ccc(OC)cc2)NC(=O)[C@H]([C@@H](C)OC)N(C)C(=O)[C@@H]2CCCN2C(=O)[C@H](Cc2cn(C)c3ccccc23)N(C)C(=O)[C@H](Cc2ccc3ccccc3c2)NC(=O)[C@@H](CC(C)C)N(C)C1=O [Compound 039] ([Mpa][Nva][dNMeL][2Nal][NMeTrp(1-Me)]P[NMeT](Me)Y(Me)PC-NH2; linker 1-10 via mXylylene),21 to 50
3,CO[C@@H](C)[C@@H]1NC(=O)[C@@H]2CCCN2C(=O)[C@H](Cc2c[nH]c3ccc(F)cc23)NC(=O)[C@H](Cc2c[nH]c3ccc(F)cc23)NC(=O)CNC(=O)[C@H](CCCCN)NC(=O)CCSCc2cccc(c2)CSCCNC(=O)[C@]2(C)CCCN2C(=O)[C@H](Cc2ccc(O)cc2)NC1=O [Compound 070] (cyclo(G[Trp(5-F)][Trp(5-F)]P[aThr](Me)Y[αMeP][X4]K)),21 to 50
